The subject of test [1] is PD-1 on CD19 CAR/4-1BB T cells. The test can be described thus: Surface expression of PD-1 on human CAR-T cells by flow cytometry, intermittent dasatinib. It is filed as in vivo, NSG mice. The settings on record: intermittently treated (CAR/+). As for the experimental part: In brief, cohorts of 1-12 mice were inoculated with 1×10^6 firefly-luciferase_GFP-transduced Raji tumor cells on day 0. […] Serial bioluminescence imaging was performed to determine tumor burden on day 7, 9 and 15.
Based on the mouse model introduced in Example 11 (FIG. 21A), the inventors analyzed the surface expression of PD-1 on human CAR-T cells in bone marrow (BM), peripheral blood (PB) and spleen (SP) by flow cytometry.
(Flow cytometry measures light scatter and fluorescence of single cells or particles in a stream.)

The test system of test [2] is CD8+ T cells expressing a ROR1 CAR with 4-1BB costimulatory domain. In words: Bioluminescence-based cytotoxicity assay, RCH-ACV target cells. It is filed as cell-based, human. The conditions noted are these: 100 nM dasatinib; t=8 hours; >90% untreated.
The subject of test [3] is CD8+ T cells expressing a SLAMF7 CAR with CD28 costimulatory domain. In words: Bioluminescence-based cytotoxicity assay, K562/SLAMF7 target cells. It is filed as cell-based, human.
In test [4] the test system is CD8+ CD19 CAR/4-1BB T cells. In words: Apoptosis assay (Annexin-V/7-AAD) after co-culture with K562/CD19. It is filed as cell-based, human. As for the experimental part:
CD8^+ CD19 CAR-T cells were cultured in the presence of 50 U IL-2 either alone or with irradiated (80 Gy) K562/CD19 tumor cells at an E:T ratio of 4:1. […] After 24 hours of co-culture, co-cultures were labeled with anti-CD8 mAb, 7AAD and AnnexinV according to the manufacturer's instructions (BD Biosciences, Heidelberg, Germany), and analyzed by flow cytometry to evaluate the amount of apoptotic and dead T cells.
At the end of the co-culture, the inventors performed staining with Annexin-V and 7-AAD to determine the percentage of live CAR-T cells (Annexin-V-negative/7-AAD-negative), CAR-T cells undergoing apoptosis (Annexin-V-positive/7-AAD-negative), and dead CAR-T cells (Annexin-V-positive/7-AAD-positive).

In test [5] the test system is CAR CD3 zeta at tyrosine 142. The test can be described thus: Quantitative Western blot of phosphorylation in CD8+ CD19 CAR/4-1BB T cells. It is filed as cell-based, human. The settings on record: 100 nM dasatinib; co-culture with RCH-ACV. (A western blot detects proteins with antibodies after separation by electrophoresis.)
The test system of test [6] is CD4+ T cells expressing a CD19 CAR with CD28 costimulatory domain. The test can be described thus: Multiplex cytokine analysis, co-culture with K562/CD19. It is filed as cell-based, human. The settings on record: dasatinib ≥25 nM; 20 h; compared to non-dasatinib treated CAR-T cells.
Protocol: A multiplex cytokine analysis was performed in supernatant removed from the co-culture.
Test [7] deals with activated CD19 CAR/4-1BB-T cells; Raji tumor cells. The test can be described thus: Raji tumor burden by bioluminescence imaging, function ON/OFF/ON (Example 7). It is filed as in vivo, NSG mice. The conditions noted are these: between day 12 and 17; CAR-T cells with prior dasatinib; 97.8% without. As for the experimental part:
The Institutional Animal Care and Use Committee of UKW approved all mouse experiments. NOD.Cg-Prkdc^scidIl2rg^tm1wjl/SzJ (NSG) mice (female, 6-8 week old) were purchased from Charles River (Sulzfeld, Germany). Mice were inoculated with 1×10^6 Raji/ffluc_GFP tumor cells via tail vein injection (i.v.). Mice were treated with 5×10^6 CAR-modified or control untransduced T-cells (CD4:CD8 ratio=1:1) via tail vein injection (i.v.). […] Tumor burden and distribution was analyzed by serial bioluminescence imaging on an IVIS Lumina imager (Perkin Elmer, Baesweiler, Germany): mice received i.p. injections of 0.3 mg/g luciferin and images were acquired 10 minutes after luciferin injection in small binning mode at an acquisition time of 1 s to 1 min to obtain unsaturated images. Data were analyzed using LivingImage Software (Caliper) and the average radiance (or photon flux) analyzed in regions of interest that encompassed the entire body of each individual mouse. Mice were sacrificed at the end of the experiment and human T cells in bone marrow, peripheral blood and spleen were analyzed by flow cytometry. The presence of (human) cytokines in serum was measured using multiplex cytokine analysis. […]
Raji tumor burden was determined by bioluminescence imaging on day 7, day 10, day 12, day 14, day 17, and subsequently, once a week (FIG. 16B).

The subject of test [8] is CD8+ T cells expressing a CD19 CAR with 4-1BB costimulation. In words: CFSE proliferation assay, co-culture with K562/CD19. The format is cell-based, human. The conditions noted are these: 72 h.
Test [9] concerns CD8+ T cells expressing a CD19 CAR with CD28 costimulatory domain. The test can be described thus: Bioluminescence-based cytotoxicity assay, K562/CD19 target cells. The format is cell-based, human.
[10] abbreviates: dasatinib added at 2 hours after the start of the co-culture, 24 h.

The source of these data is patent publication US20230310432A1 (JULIUS-MAXIMILIANS-UNIVERSITÄT WÜRZBURG, priority 2017, published 2023).

A value given as a limit tells only on which side of the number the result lay.

For the molecule `Cc1nc(Nc2ncc(C(=O)Nc3c(C)cccc3Cl)s2)cc(N2CCN(CCO)CC2)n1` [dasatinib], the “PD-1 mean fluorescence intensity (MFI) on CAR-T cells, peripheral blood” value in test [1] (4110 not exposed) came to 2775. The “PD-1 mean fluorescence intensity (MFI) on CAR-T cells, spleen” value in test [1] (4318 not exposed) was determined as 23652. Moreover, the “PD-1 mean fluorescence intensity (MFI) on CAR-T cells, bone marrow” value in test [1] (9461 not exposed) worked out at 7025. Moreover, the specific lysis in test [2] is given as < 5%. Besides, the “specific lysis of target cells” value in test [3] (dasatinib 20, 40 and 60 nM, t=6 h, 67% by non-dasatinib treated) is “less than 21%”; in test [3] (dasatinib ≥80 nM, any given time point, 85% by non-dasatinib treated at t=12 h), “less than 3%”; in test [9] (dasatinib 50 nM, t=5 h, 52% by non-dasatinib treated) it was “less than 23%”; in [9] (dasatinib 100 nM, any given time point, 91% by non-dasatinib treated at t=10 h), “less than 10%”. Also, the “residual specific lysis of target cells” value is reported as “less than 35%” in [3] (dasatinib 20, 40 and 60 nM, t=12 h, 85% by non-dasatinib treated); 47% in [9] (dasatinib 50 nM, t=10 h, 91% by non-dasatinib treated). Further, the “dead CAR-T cells (Annexin-V-positive/7-AAD-positive)” value in test [4] (100 nM dasatinib present, 24 h with K562/CD19, 8.4% in absence) is given as 6.9%. Further, in test [4] (100 nM dasatinib present, 24 h with K562/CD19, 25.4% in absence), the “alive CAR-T cells (Annexin-V-negative/7-AAD-negative)” value is 47.4%. Moreover, the “apoptotic CAR-T cells (Annexin-V-positive/7-AAD-negative)” value in [4] (100 nM dasatinib present, 24 h with K562/CD19, 66.2% in absence) was found to be 45.7%. Besides, in [4] (setting [10]), the “alive CAR-T cells” value was 41.7%. For the same molecule, the “apoptotic CAR-T cells” value in test [4] (setting [10]) is reported as 51.3%. For the same molecule, the “dead CAR-T cells” value in [4] (setting [10]) is 7%. Besides, the “phosphorylation compared to CAR-T cells co-cultured in the absence of dasatinib” value in test [5] was determined as 12.86%. In addition, the “reduction of production and secretion of GM-CSF, IFN-γ, IL-2, IL-4, IL-5, IL-6, IL-8” value in [6] is > 95%. Also, in test [7], the “reduction of tumor luminescence” value was 66%. Also, the remaining proliferation in test [8] (0.1 μM dasatinib) was < 5.6%. Besides, the “residual proliferation compared to non-dasatinib treated CAR-T cells” value was “less than 80%” in test [8] (dasatinib ≥3.125 nM), “less than 45%” in test [8] (dasatinib ≥12.5 nM) and “less than 8%” in test [8] (dasatinib ≥50 nM).
